Key:
hNSCs = test: neurogenesis of hNSCs, morphological changes under inverted fluorescent microscopy; assay type: cell-based, human; conditions: 72 hours
Description: Briefly, hNSCs were purchased from Millipore, Bellerica, Mass., U.S.A., with genetic modification to constitutively express green fluorescent protein (“GFP”). The hNSCs were cultured on laminin coated plates as recommended by the manufacturer. Both laminin and DEME/F12 were obtained from Millipore. Laminin was diluted with DMEM/F12 to 20 μg/mL. 10 ml of diluted laminin solution was added to 10 cm tissue culture dish. Then the culture dish was incubated in a 37° C., 5% CO2 incubator overnight. Just before use, the laminin solution was aspirated and rinsed once with sterile DPBS solution. hNSCs were cultured in the ReNcell NSC maintenance medium (Millipore) supplied with 20 ng/mL bFGF and 20 ng/mL EGF in a 37° C., 5% CO2 incubator. Medium was exchanged with fresh medium containing bFGF and EGF every other day thereafter. The cells reached 80% confluence 2 to 3 days after this step.
After hNSCs reach 80% confluence, hNSCs were ready for the differentiation experiment. Before seeding, a 96-well plate was freshly coated with 20 μg/mL laminin solution followed by a brief DPBS rinse as described above. Culture medium was removed carefully and hNSCs were dissociated within 3 ml Accutase (Millipore) in a 37° C., 5% CO2 incubator for 3 minutes. Then 5 ml of ReNcell NSC maintenance medium (Millipore) supplied with 20 ng/mL bFGF and 20 ng/mL EGF were added. The cell suspension was then transferred a sterile 15 ml conical tube and the cells were pelleted by the centrifugation at 300×g for 5 minutes. Supernatant was removed. 2 ml medium was then applied to the tube and hNSCs was resuspended thoroughly. The hNSCs were seeded on a 96-well plate at a density of 1×10^4 cell/ml (1000 cells/well, 100 μl/well).
After attaching to the culture surface, the culture medium was switched to serum-free differentiation medium in the presence of cholesterol, or DHA, or no treatment. […]

hADSCs = test: neurogenesis of hADSCs, neuronal morphology under phase contrast microscopy; assay type: cell-based, human
Description: hADSCs were purchased from Invitrogen, also known as Life Technologies, of Carlsbad, Calif., U.S.A., and were cultured as near confluent monolayers in 100 mm culture plates within a maintenance media consisting of Complete MesenPro RS medium with growth supplement and L-glutamine obtained from Invitrogen®. The process of culturing, passage, and seeding the hADSCs is described below.
The subculture of hADSCs was performed when cell culture reached confluence. To passage hADSCs, the following procedure is used: i) aspirate the Complete MesenPRO RS medium from the cells; ii) rinse the surface area of the cell layer with Dulbecco's phosphate buffered saline (DBPS) buffer by adding the DPBS to the side of the vessel opposite the attached cell layer and rocking the vessel back and forth several times; iii) remove the DPBS by aspiration and discard; iv) detach the cells by adding a sufficient volume of pre-warmed trypsin-EDTA solution without phenol red to cover the cell layer; v) incubate at 37° C. for approximately 7 minutes; vi) observe the cells under a microscope to determine if additional incubation is needed; vii) add 3 mL of the maintenance media to the plate, mix the cell suspension, add the suspension to a 15 mL centrifuge tube and centrifuge at 210 g for 5 minutes; viii) determine the total number of cells and percent viability using a hemacytometer; ix) add Complete MesenPRO RS medium to each vessel so that the final culture volume is 0.2 mL-0.5 mL per cm^2; x) seed the cells by adding the appropriate volume of cells to each vessel and incubate at 37° C., 5% CO2 and 90% humidity; and xi) three or four days after seeding, completely remove the medium and replace with an equal volume of Complete MesenPRO RS medium.
Before seeding the passaged hADSCs on fresh culture plates, the surfaces of the culture ware are washed with sterile DPBS solution three times, followed by multiple rinses with sterile water. The first layer of coating is poly-L-ornithine. […]

For `CC(C)CCC[C@@H](C)[C@H]1CC[C@H]2[C@@H]3CC=C4C[C@@H](O)CC[C@]4(C)[C@H]3CC[C@]12C` [cholesterol], the “morphology of hNSCs observed” value (hNSCs; 25 μM) was “shrinking cellular bodies, projecting neurities and were developing dendrites”, the “neurogenesis of hNSCs compared to no treatment” value (hNSCs; 25 μM, serum-free differentiation medium) was “dramatically promoted neurogenesis” and the “length of neurite outgrowth” value (hNSCs; cholesterol 25 μM compared with DHA at 20 μM) was “comparable to DHA”. For the same molecule, the “effect to enhance neurogenesis (neuronal morphology displayed by the hADSCs)” value (hADSCs; 5 μM, among the concentrations tested, phase contrast microscopy at 24, 48 and 96 hours, FIG. 2B) was “strongest effect to enhance neurogenesis”, the “neurogenesis compared to the negative control” value (hADSCs; addition of cholesterol vs no treatment) was “promoted neurogenesis when compared to the negative control” and the “morphology of treated hADSCs (outgrowth)” value (hADSCs; hADSCs treated with cholesterol, FIG. 2B) was “long outgrowth with some branching”.

— patent US9351978B2, “Neurogenesis screening method and uses thereof” (Mead Johnson Nutrition Company, priority 2012, dated 2016)
